Measurements: US20230399313A1, “BIOLOGICAL ACTIVITIES OF 5-(2-(4-(4-FLUORO-2-METHYL-1H-INDOL-5-YLOXY)-6-METHOXYQUINOLIN-7-YLOXY)ETHYL)-5-AZASPIRO[2.4]-HEPTAN-7-OL CRYSTALLINE, PHOSPHORIC ACID SALT AND ITS ENANTIOMERS” (Advenchen Pharmaceuticals, LLC, priority 2022, published 2023)
Converted amounts (≈) assume the structure as drawn.

Tests used:
MKN45 = experiment: In vitro MTT (proliferation) assay; assay type: cell-based; settings: Homo sapiens, MKN-45, MKN45 cell line, breast (so in the source)
Description: (§1) The inhibitions of Compound A-Xln, Compound A-P-Xln and two chiral isomers (Compound R-A, Compound S-A) to cancer cell lines are tested via in vitro MTT assay. Cancer cell lines are selected from PANC-1, NCI-H157, MDA-MB-231, Hela, PC-3, BEL7404, MKN45, Ishikawa, Saos-2, SKOV3, SW579 and HCT116 cell lines. The IC50 values are in the micromole scale.
(§2) In vitro MTT (proliferation) assay was performed with compound from above examples to give following inhibition results: […]

SW579 = experiment: In vitro MTT (proliferation) assay; assay type: cell-based; settings: SW579 cell line, thyroid
Description: as §1, §2

MDA-MB-231 = experiment: In vitro MTT (proliferation) assay; assay type: cell-based; settings: Homo sapiens; MDA-MB-231 cell line, breast; MTT; read-out: MDA-MB-231 IC50
Description: as §1, §2

Saos-2 = experiment: In vitro MTT (proliferation) assay; assay type: cell-based; settings: Homo sapiens, Saos-2 cell line, sarcoma
Description: as §1, §2

PC-3 = experiment: In vitro MTT (proliferation) assay; assay type: cell-based; settings: Homo sapiens, PC-3 cell line, prostate
Description: as §1, §2

HCT-116 = experiment: In vitro MTT (proliferation) assay; assay type: cell-based; settings: Homo sapiens, HCT116 cell line, colon, MTT, read-out: HCT116 IC50
Description: as §1, §2

Ishikawa = experiment: In vitro MTT (proliferation) assay; assay type: cell-based; settings: Homo sapiens, Ishikawa cell line, endometrial
Description: as §1, §2

SKOV3 = experiment: In vitro MTT (proliferation) assay; assay type: cell-based; settings: Homo sapiens, SK-OV-3; SKOV3 cell line, ovary; MTT; read-out: SKOV3 IC50
Description: as §1, §2

NCI-H157 = experiment: In vitro MTT (proliferation) assay; assay type: cell-based; settings: Homo sapiens, NCI-H157 cell line, lung
Description: as §1, §2

PANC-1 = experiment: In vitro MTT (proliferation) assay; assay type: cell-based; settings: Homo sapiens, PANC-1 cell line, pancreas
Description: as §1, §2

Hela = experiment: In vitro MTT (proliferation) assay; assay type: cell-based; settings: Homo sapiens; Hela cell line, ovary (so in the source); MTT; read-out: Hela IC50
Description: as §1, §2

BEL7404 = experiment: In vitro MTT (proliferation) assay; assay type: cell-based; settings: Homo sapiens, BEL-7404, BEL7404 cell line, ovary (so in the source)
Description: as §1, §2

[1] = Stability of amorphous and crystalline form API at 60° C. (HPLC related substances); assay type: physicochemical
Description: The samples of amorphous and crystalline form API of Compound A were placed in clean containers and the environmental temperature was controlled at 60° C. The purity of amorphous (Compound A-Amp) and crystalline form (Compound A-Xln) of Compound A were tested at Day 0, Day 10 and Day 30. Samples of amorphous and crystalline form APIs were measured, and the appropriate amount of diluent was added to dissolve with sonication. The concentration was controlled at 0.2 mg/ml and the purification was determined by HPLC with UV detector at 230 nm. Results were listed in the table as follows and the fitted curve is in Drawing Sections as FIG. 6.

Water solubility = assay type: physicochemical
[2] = high temperature 60° C., 10 days
[3] = high temperature 60° C., 30 days

| IC50 (MKN45) [nM] | IC50 (SW579) [nM] | IC50 (MDA-MB-231) [µM] | IC50 (PC-3) [nM] | IC50 (HCT-116) [nM] | IC50 (SKOV3) [µM] | IC50 (NCI-H157) [µM] | IC50 (PANC-1) [µM] | IC50 (Hela) [µM] | IC50 (BEL7404) [nM] | SMILES | IC50 (Saos-2) [µM] | IC50 (Ishikawa) [µM] | Maximum impurities (%) ([1]; 0 day) | Total impurities (%) ([1]; 0 day) | Maximum impurities (%) [1, 2] [%] | Total impurities (%) [1, 2] [%] | Maximum impurities (%) [1, 3] [%] | Total impurities (%) [1, 3] [%] | solubility (Water solubility) [µg/mL] |
| --- | --- | --- | --- | --- | --- | --- | --- | --- | --- | --- | --- | --- | --- | --- | --- | --- | --- | --- | --- |
| 320 | 836 | 6.6 | 5600 | 980 | 7.65 | 7 | 5 | 6.3 | 2380 | COc1cc2c(Oc3ccc4[nH]c(C)cc4c3F)ccnc2cc1OCCN1C[C@@H](O)C2(CC2)C1 [Compound S-A] | 5.35 | 4.98 |  |  |  |  |  |  |  |
|  |  |  |  |  |  |  |  |  |  | COc1cc2c(Oc3ccc4[nH]c(C)cc4c3F)ccnc2cc1OCCN1CC(O)C2(CC2)C1 (stereo not shown) [Compound A-Amp, 5-(2-(4-(4-fluoro-2-methyl-1H-indol-5-yloxy)-6-methoxyquinolin-7-yloxy)ethyl)-5-azaspiro[2.4]-heptan-7-ol] |  |  | 0.075 | 0.26 | 0.191 | 0.323 | 0.327 | 0.583 |  |
| 430 | 906 | 9.6 | 2750 | 883 | 3.71 | 8.11 | 5.64 | 6.69 | 4060 | COc1cc2c(Oc3ccc4[nH]c(C)cc4c3F)ccnc2cc1OCCN1C[C@H](O)C2(CC2)C1 [Compound R-A] | 3.08 | 4.61 |  |  |  |  |  |  |  |
|  |  |  |  |  |  |  |  |  |  | COc1cc2c(Oc3ccc4[nH]c(C)cc4c3F)ccnc2cc1OCCN1CC(O)C2(CC2)C1 (stereo not shown) [Compound A-P, 5-(2-(4-(4-fluoro-2-methyl-1H-indol-5-yloxy)-6-methoxyquinolin-7-yloxy)ethyl)-5-azaspiro[2.4]-heptan-7-ol] |  |  |  |  |  |  |  |  | 360 (≈ 754 µM) |

| SMILES | IC50 (MKN45) [nM] | IC50 (SW579) [nM] | IC50 (MDA-MB-231) [µM] | IC50 (PC-3) [nM] | IC50 (HCT-116) [nM] | IC50 (SKOV3) [µM] | IC50 (NCI-H157) [µM] | IC50 (PANC-1) [µM] | IC50 (Hela) [µM] | IC50 (BEL7404) [nM] | IC50 (Saos-2) [µM] | IC50 (Ishikawa) [µM] | Maximum impurities (%) ([1]; 0 day) | Total impurities (%) ([1]; 0 day) | Maximum impurities (%) [1, 2] [%] | Total impurities (%) [1, 2] [%] | Maximum impurities (%) [1, 3] [%] | Total impurities (%) [1, 3] [%] | solubility (Water solubility) [µg/mL] |
| --- | --- | --- | --- | --- | --- | --- | --- | --- | --- | --- | --- | --- | --- | --- | --- | --- | --- | --- | --- |
| COc1cc2c(Oc3ccc4[nH]c(C)cc4c3F)ccnc2cc1OCCN1CC(O)C2(CC2)C1 (stereo not shown) [Compound A-P-Xln, 5-(2-(4-(4-fluoro-2-methyl-1H-indol-5-yloxy)-6-methoxyquinolin-7-yloxy)ethyl)-5-azaspiro[2.4]-heptan-7-ol] | 130 | 880 | 3.93 | 1770 | 934 | 3.09 | 1.61 | 2.75 | 2.36 | 1750 | 2.48 | 1.48 |  |  |  |  |  |  |  |
